According to patent US9546156B2, “N-bicyclic aryl,N'-pyrazolyl urea, thiourea, guanidine cyanoguanidine compounds as TrkA kinase inhibitors” (Array BioPharma Inc., priority 2012, dated 2017):
Counter-ions that a name gives are not always drawn.

Molecular target: T1, His-tagged recombinant human TrkA (Homo sapiens, UniProt P04629)
T1 construct: 6HIS tagged cytoplasmic domain from Invitrogen, Catalog No. PV3144; purchased Invitrogen PV3144
Assay: TrkA LanthaScreen Eu Kinase Binding Assay
Details: averaged IC50; TR-FRET binding assay, 60 min, 22° C.; read-out: TrkA Enzyme IC50
Procedure: TrkA binding activity was determined in a TrkA LanthaScreen™ Eu Kinase Binding Assay. 5 nM His-tagged recombinant human TrkA (6HIS tagged cytoplasmic domain from Invitrogen, Catalog No. PV3144) was incubated with 4 nM Alexa-Fluor® Tracer 236 (Invitrogen Cat. No. PV5592), 2 nM biotinylated anti-His (Invitrogen Cat. No. PV6090), and 2 nM europium-labeled Streptavidin (Invitrogen Cat. No. PV5899), in buffer (25 mM MOPS, pH 7.5, 5 mM MgCl2, 0.005% Triton X-100). Three fold serial dilutions of compounds of the invention in DMSO were added to a final percentage of 2% DMSO. After 60-minute incubation at 22° C., the reaction was measured using the EnVision multimode plate reader (PerkinElmer) via TR-FRET dual wavelength detection at […]. The percent of control was calculated using a ratiometric emission factor. The IC50 values were determined by fitting a four parameter model to the percent of control data.
Table A provides averaged IC50 values for compounds of the invention when tested in the assay of Example A, where A represents an averaged IC50 value <100 nM; B represents an averaged IC50 value from 100 to 1,000 nM; and C represents an averaged IC50 value from 1,000 to 10,000 nM.

T1 sequence (P04629 440-796 limits assumed): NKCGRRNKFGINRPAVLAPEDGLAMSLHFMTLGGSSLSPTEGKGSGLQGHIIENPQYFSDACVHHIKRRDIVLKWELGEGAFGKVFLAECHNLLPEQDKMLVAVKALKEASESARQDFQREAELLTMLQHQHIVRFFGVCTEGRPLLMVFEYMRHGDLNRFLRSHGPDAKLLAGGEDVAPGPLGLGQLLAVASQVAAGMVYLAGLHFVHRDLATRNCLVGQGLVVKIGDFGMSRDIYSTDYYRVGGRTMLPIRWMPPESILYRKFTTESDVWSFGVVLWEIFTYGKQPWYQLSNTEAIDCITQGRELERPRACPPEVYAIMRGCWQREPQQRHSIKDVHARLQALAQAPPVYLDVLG

Structure (SMILES) | IC50
O=C(Nc1ccc(Cl)c2ccccc12)Nc1c2c(nn1-c1ccccc1)CCC2 [Example 2, 1-(4-chloronaphthalen-1-yl)-3-(2-phenyl-2,4,5,6-tetrahydrocyclopenta[c]pyrazol-3-yl)urea] | < 100 nM
Cc1c(-c2ccc(=O)n(C)c2)nn(-c2ccccc2)c1NC(=O)Nc1cncc2ccccc12 [Example 25, 1-(isoquinolin-4-yl)-3-(4-methyl-3-(1-methyl-6-oxo-1,6-dihydropyridin-3-yl)-1-phenyl-1H-pyrazol-5-yl)urea] | 100 to 1000 nM
COCc1ccc2ccc(Cl)c(NC(=O)Nc3c(C)c(-c4cnn(C)c4)nn3-c3ccccc3)c2c1 [Example 18, 1-(2-chloro-7-(methoxymethyl)naphthalen-1-yl)-3-(1′,4-dimethyl-1-phenyl-1H,1′H-[3,4′-bipyrazol]-5-yl)urea] | < 100 nM
COCc1ccc2c(Cl)ccc(NC(=O)Nc3c(C)c(-c4cnn(C)c4)nn3-c3ccccc3)c2c1 [Example 19, 1-(4-chloro-7-(methoxymethyl)naphthalen-1-yl)-3-(1′,4-dimethyl-1-phenyl-1H,1′H-[3,4′-bipyrazol]-5-yl)urea] | < 100 nM
Cc1c(C2CCNCC2)nn(-c2ccccc2)c1NC(=O)Nc1ccc(Cl)c2ccccc12 [Example 12, 1-(4-chloronaphthalen-1-yl)-3-(4-methyl-1-phenyl-3-(piperidin-4-yl)-1H-pyrazol-5-yl)urea hydrochloride] | < 100 nM
CNC(=O)c1nn(-c2ccccc2)c(NC(=O)Nc2ccc(Cl)c3ccccc23)c1C [Example 8, 5-(3-(4-chloronaphthalen-1-yl)ureido)-N,4-dimethyl-1-phenyl-1H-pyrazole-3-carboxamide] | < 100 nM
O=C(Nc1ccc(Cl)c2ccccc12)Nc1c(Cl)c(OCC2CCNCC2)nn1-c1ccccc1 [Example 11, 1-(4-chloro-1-phenyl-3-(piperidin-4-ylmethoxy)-1H-pyrazol-5-yl)-3-(4-chloronaphthalen-1-yl)urea hydrochloride] | < 100 nM
COCc1ccc2c(Cl)ccc(NC(=O)Nc3c(C)c(-c4ccc(=O)n(C)c4)nn3-c3ccccc3)c2c1 [Example 21, 1-(4-chloro-7-(methoxymethyl)naphthalen-1-yl)-3-(4-methyl-3-(1-methyl-6-oxo-1,6-dihydropyridin-3-yl)-1-phenyl-1H-pyrazol-5-yl)urea] | < 100 nM
COCc1ccc2c(Cl)ccc(NC(=O)Nc3c(C)c(C4CCN(C)CC4)nn3-c3ccccc3)c2c1 [Example 20, 1-(4-chloro-7-(methoxymethyl)naphthalen-1-yl)-3-(4-methyl-3-(1-methylpiperidin-4-yl)-1-phenyl-1H-pyrazol-5-yl)urea hydrochloride] | < 100 nM
Cc1c(-c2cnn(C)c2)nn(-c2ccccc2)c1NC(=O)Nc1ncc(Cl)c2ccccc12 [Example 23, 1-(4-chloroisoquinolin-1-yl)-3-(1′,4-dimethyl-1-phenyl-1H,1′H-[3,4′-bipyrazol]-5-yl)urea] | 1000 to 10000 nM
Cc1c(C2CCN(CC(F)(F)F)CC2)nn(-c2ccccc2)c1NC(=O)Nc1ccc(Cl)c2ccccc12 [Example 13, 1-(4-chloronaphthalen-1-yl)-3-(4-methyl-1-phenyl-3-(1-(2,2,2-trifluoroethyl)piperidin-4-yl)-1H-pyrazol-5-yl)urea] | < 100 nM
Cc1c(C2CCN(C)CC2)nn(-c2ccccc2)c1NC(=O)Nc1ccc(Cl)c2ccccc12 [Example 14, 1-(4-chloronaphthalen-1-yl)-3-(4-methyl-3-(1-methylpiperidin-4-yl)-1-phenyl-1H-pyrazol-5-yl)urea hydrochloride] | < 100 nM
Cc1c(-c2ccc(=O)n(C)c2)nn(-c2ccccc2)c1NC(=O)Nc1ccc(Cl)c2ccccc12 [Example 1, 1-(4-chloronaphthalen-1-yl)-3-(4-methyl-3-(1-methyl-6-oxo-1,6-dihydropyridin-3-yl)-1-phenyl-1H-pyrazol-5-yl)urea] | < 100 nM
COCc1cc2c(NC(=O)Nc3c(C)c(-c4cnn(C)c4)nn3-c3ccccc3)ccc(Br)c2cn1 [Example 5, 1-(8-bromo-3-(methoxymethyl)isoquinolin-5-yl)-3-(1′,4-dimethyl-1-phenyl-1H,1′H-[3,4′-bipyrazol]-5-yl)urea] | < 100 nM
COC[C@H](O)COc1nn(-c2ccccc2)c(NC(=O)Nc2ccc(Cl)c3ccccc23)c1C [Example 15, (S)-1-(4-chloronaphthalen-1-yl)-3-(3-(2-hydroxy-3-methoxypropoxy)-4-methyl-1-phenyl-1H-pyrazol-5-yl)urea] | < 100 nM
COCc1cc2c(NC(=O)Nc3c(C)c(-c4cnn(C)c4)nn3-c3ccccc3)c(Cl)ccc2cn1 [Example 4, 1-(6-chloro-3-(methoxymethyl)isoquinolin-5-yl)-3-(1′,4-dimethyl-1-phenyl-1H,1′H-[3,4′-bipyrazol]-5-yl)urea] | 100 to 1000 nM
COCc1ccc2cccc(NC(=O)Nc3c(C)c(-c4ccc(=O)n(C)c4)nn3-c3ccccc3)c2c1 [Example 17, 1-(7-(methoxymethyl)naphthalen-1-yl)-3-(4-methyl-3-(1-methyl-6-oxo-1,6-dihydropyridin-3-yl)-1-phenyl-1H-pyrazol-5-yl)urea] | < 100 nM
COCc1cc2c(NC(=O)Nc3c(C)c(-c4cnn(C)c4)nn3-c3ccccc3)ccc(Cl)c2cn1 [Example 6, 1-(8-chloro-3-(methoxymethyl)isoquinolin-5-yl)-3-(1′,4-dimethyl-1-phenyl-1H,1′H-[3,4′-bipyrazol]-5-yl)urea] | < 100 nM
Cc1c(-c2cnn(C)c2)nn(-c2ccccc2)c1NC(=O)Nc1cncc2ccccc12 [Example 24, 1-(1′,4-dimethyl-1-phenyl-1H,1′H-3,4′-bipyrazol-5-yl)-3-(isoquinolin-4-yl)urea] | 1000 to 10000 nM
Cc1c(C(N)=O)nn(-c2ccccc2)c1NC(=O)Nc1ccc(Cl)c2ccccc12 [Example 7, 5-(3-(4-chloronaphthalen-1-yl)ureido)-4-methyl-1-phenyl-1H-pyrazole-3-carboxamide] | < 100 nM
COCc1cc2c(NC(=O)Nc3c(C)c(-c4cnn(C)c4)nn3-c3ccccc3)cccc2cn1 [Example 3, 1-(1′,4-dimethyl-1-phenyl-1H,1′H-[3,4′-bipyrazol]-5-yl)-3-(3-(methoxymethyl)isoquinolin-5-yl)urea trifluoroacetate] | < 100 nM
Cc1c(C2CCNCC2)nn(-c2ccccc2)c1NC(=O)Nc1ncc(Cl)c2ccccc12 [Example 22, 1-(4-chloroisoquinolin-1-yl)-3-(4-methyl-1-phenyl-3-(piperidin-4-yl)-1H-pyrazol-5-yl)urea hydrochloride] | 1000 to 10000 nM
Cc1c(-c2cnn(C)c2)nn(-c2ccccc2)c1NC(=O)Nc1ccc(Cl)c2ccccc12 [Example 9, 1-(4-chloronaphthalen-1-yl)-3-(1′,4-dimethyl-1-phenyl-1H,1′H-[3,4′-bipyrazol]-5-yl)urea] | < 100 nM
Cc1c(-c2cnn(C)c2)nn(-c2ccccc2)c1NC(=O)Nc1cccc2ccccc12 [Example 10, 1-(1′,4-dimethyl-1-phenyl-1H,1′H-[3,4′-bipyrazol]-5-yl)-3-(naphthalen-1-yl)urea] | 100 to 1000 nM
